Test results published in patent publication US12257246B2, “Composition of 2,4,6-trifluoro-n-[6-(1-methyl-piperidin-4-carbonyl)-pyridin-2-yl[-benzamide” (CoLucid Pharmaceuticals, Inc., priority 2009, dated 2025).
“Also recorded” adds a separate entry of the source.

Tests used:
patients with migraine = experiment: Intravenous dose-finding study in acute migraine: tolerability and safety; assay type: in vivo, human
Protocol: The study used a prospective, randomized, double-blind, placebo-controlled design with group-sequential adaptive-treatment assignment (Olesen J et al., N Engl J Med 2004: 350: 1104-10; Hall D B et al., Contemporary Clinical Trials 2005; 26: 349-63). […] The first cohort was allocated to the 2.5 mg dose level. The dose used in subsequent cohorts depended on the headache response (moderate or severe headache reduced to mild or none at 2 hours) of the previous cohort: if 2 or less of the 4 active-treated patients had responded, the dose was increased, and if 3 or more of the 4 active-treated patients had responded, the dose was reduced. The dose adjustment rules were chosen to identify doses of Compound I with efficacy similar to or better than an oral triptan. […] The occurrence of a drug-related serious adverse event would lead to automatic suspension of the randomization pending a safety review.
Data were entered concurrently into an online electronic data capture system. Patients were discharged from the clinic after 4 h and continued to record migraine symptoms and adverse events until 24 h using a diary card.

[1] = tested on: other 5-HT1 receptor subtypes (5-HT1A, 5-HT1B, 5-HT1D, 5-HT1E); conditions: cited from earlier work
rabbit saphenous vein = experiment: Rabbit saphenous vein contraction

Which “Patients with adverse event Fatigue” value (patients with migraine; 2.5 mg iv) does the source give for `CN1CCC(C(=O)c2cccc(NC(=O)c3c(F)cc(F)cc3F)n2)CC1` [Compound I, 2,4,6-trifluoro-N-[6-(1-methyl-piperidin-4-ylcarbonyl)-pyridin-2-yl]-benzamide] here?
Its value is 0.0%.

And the “Patients with adverse event Feeling of relaxation” value (from here on “Patients … of relaxation”) (patients with migraine; 2.5 mg iv)?
The value was 0.0%.

What about the “Patients with adverse event Paresthesia” value (patients with migraine; 2.5 mg iv) of the same molecule?
The value was 0.0%.

What about the “Patients with adverse event Sensation of heaviness” value (“Patients … of heaviness” for short) (patients with migraine; 2.5 mg iv) of the same molecule?
Its value is 0.0%.

What about the “Patients … of relaxation” value (patients with migraine; 5 mg iv) of the same molecule?
The value was 0.0%.

And the “Patients with adverse event Paresthesia” value (patients with migraine; 5 mg iv)?
Its value is 0.0%.

What about the “Patients … of heaviness” value (patients with migraine; 5 mg iv) of the same molecule?
The value was 0.0%.

And the “Patients … of relaxation” value (patients with migraine; 10 mg iv)?
The value was 0.0%.

And the “Patients with adverse event Fatigue” value (patients with migraine; 45 mg iv)?
The value was 0.0%.

What about the “Patients … of relaxation” value (patients with migraine; 45 mg iv) of the same molecule?
The value was 0.0%.

And the “Patients … of heaviness” value (patients with migraine; 45 mg iv)?
Its value is 0.0%.

And the “patients reporting adverse events” value (patients with migraine; all iv doses 2.5 to 45 mg (placebo 43%))?
Its value is 65%.

And the tolerability (patients with migraine; doses above 60 mg intravenously over 20 minutes)?
The tolerability was “not well tolerated”.

And the “serious adverse events or withdrawals” value (patients with migraine; iv)?
Its value is “no serious adverse events or withdrawals due to non-serious adverse events”.

What about the “vital signs, ECG, hematological and clinical chemistry parameters” value (patients with migraine; iv) of the same molecule?
The value was “No clinically significant changes; also recorded: no clinically significant abnormalities”.

What about the tolerability (patients with migraine; iv 2.5 to 45 mg over 20 min) of the same molecule?
Its tolerability is “generally well tolerated”.

And the triptan-like chest symptoms (patients with migraine; iv infusion)?
The triptan-like chest symptoms was “No patient reported triptan-like chest symptoms; also recorded: no patient-reported chest symptoms or chest discomfort”.

What about the “affinity higher for 5-HT1F receptors than for other 5-HT1 receptor subtypes” value [1] of the same molecule?
Its value is “more than 450 fold”.

What about the solubility (Solubility (statement)) of the same molecule?
Its solubility is “high solubility”.

What about the vasoconstrictive activity (rabbit saphenous vein) of the same molecule?
Its vasoconstrictive activity is “not be significantly vasoconstrictive”.
